Test results reported in patent publication US20250314644A1, “METHODS COMPRISING DETECTION OF ADP-HEPTOSE” (CHILDREN'S HOSPITAL MEDICAL CENTER, priority 2023, published 2025).

Experiments:
Type in all cases: in vivo, mouse
Dnmt3a^−/− HSCs = experiment: DSS gut injury in low-dose irradiated chimeric mice, with or without antibiotics pre-treatment
Description: To model pre-leukemic clonal hematopoiesis, chimeric mice were generated as aas follows. Briefly, mixture of 1×10^6 whole bone marrow cells (WBM) were obtained from Poly (I:C) treated wild-type (Dnmt3a^+/+; MxCre^+, called Dnmt3a^WT) or mutant mice (Dnmt3a^f/f; MxCre^+, called Dnmt3a^KO) or double mutant mice (Dnmt3a^f/f; MxCre^+; Alpk1^KO, called Dnmt3a^KO; Alpk1^KO) (CD45.2^+), and transplanted into low-dose (2.5 Gy) irradiated recipient mice (CD45.1^+; 6-10 weeks of age). 8 weeks post-transplant, chimeric mice were treated with either water (H2O) or DSS (2.5%) for 1 week, and allowed to recover for 1 more week on water after which flow cytometry was performed on BM. In separate experiment, chimeric mice were pre-treated with broad spectrum antibiotics (ABX) for 4 weeks, and then subjected to DSS for 1 week after which flow cytometry performed on BM. In a separate set of experiment, chimeric mice were treated with either H2O or ADP-heptose (0.5 mg/kg) for 2 weeks, and flow cytometry performed after 2 more weeks on BM. […]
Mice were treated with 2.5% DSS (wt/vol) (MW: 36,000-50,000 Da, Cat No. 216011090, MP Biomedicals) in autoclaved drinking water to induce gut injury-associated colitis as mentioned before. […] Mice were monitored daily for weight loss, stool consistency, and the presence of frank blood in the stool. […]

[1] = Quantification of bacterial DNA (16S) in blood by real-time PCR; details: DSS-induced intestinal barrier dysfunction in mice
Description: The previously described protocol to examine bacterial translocation into blood was used. (Luo, Z., et al. CRIg(+) Macrophages Prevent Gut Microbial DNA-Containing Extracellular Vesicle-Induced Tissue Inflammation and Insulin Resistance. Gastroenterology 160, 863-874 (2021); Tabuchi, Y., et al. Oral dextran sulfate sodium administration induces peripheral spondyloarthritis features in SKG mice accompanied by intestinal bacterial translocation and systemic Th1 and Th17 cell activation. Arthritis Res Ther 24, 176 (2022)) Whole blood was collected by cheek bleeding in sterile BD Microtainer Capillary Blood Collector and Microgard Closure tubes (Cat No. 13-680-62, Fisher Scientific) on ice from each mouse using Goldenrod Animal Lancets 4 mm (Cat No. NC9922361, Braintree Scientific), and genomic DNA extracted using DNeasy Blood & Tissue Kit (Cat No. 69504, Qiagen). qPCR was performed using Femto Bacterial DNA Quantification Kit (Cat. No. E2006, Zymo Research) according to the manufacturers' instructions. Samples with a Ct value more than 35 cycles or undetectable were counted as 0 μg/ml.

[2] = UHPLC-MS/MS measurement of ADP-heptose in plasma and BM; details: DSS-induced intestinal barrier dysfunction in mice
Protocol: To measure ADP-heptose, lysates were prepared as described previously. (Gaudet, R. G., et al. INNATE IMMUNITY. Cytosolic detection of the bacterial metabolite HBP activates TIFA-dependent innate immunity. Science 348, 1251-1255 (2015).) Briefly, bacterial culture suspensions of various mouse tissues and human plasma samples were first spun at 4000 g for 5 minutes. Next, pellets were suspended in 1 ml of sterile water. Bacterial cells were then lysed by heating at 95° C. for 15 minutes. Next, lysates were centrifuged at 4000 g for 3 minutes and supernatants filtered through a 0.20 μm syringe filter using 1 ml syringe and needle. Finally, lysates were stored at −80° C. until further processing for Mass Spectrometry. Following a previously established protocol, lysates were prepared. (Pfannkuch, L., et al. ADP heptose, a novel pathogen-associated molecular pattern identified in Helicobacter pylori. FASEB J 33, 9087-9099 (2019).) Briefly, 500 μl of the cleared bacterial lysate was thawed from −80° C. and extracted by addition of 1 ml chloroform/methanol (v:v 2:1) and vortexed and centrifuged (5 min, 10,000 g). […]
The concentration of ADP-heptose was determined using an ultrahigh-performance liquid chromatography-electrospray ionization-mass spectrometry (UHPLC-ESI-MS/MS) method by modifying our previously described protocol. […]

Substance: dextran sulfate sodium [DSS]
- expansion of Dnmt3a^−/− HSCs in the BM (Dnmt3a^−/− HSCs): significant expansion
- copies of 16S rRNA in the blood [1]: increased copies
- ADP-heptose in BM and PB plasma by mass spectrometry [2]: circulating ADP-heptose in the BM and PB plasma
